How the values were obtained:
And-1 polymerization = target: T1, And-1 polymerization (Homo sapiens, UniProt O75717); experiment: FLAG-And-1 / HA-And-1 co-immunoprecipitation in U2OS cells; format: cell-based
T1 construct: expressed in transfected cells; host or cells: U2OS
T1 sequence (O75717 1-1129): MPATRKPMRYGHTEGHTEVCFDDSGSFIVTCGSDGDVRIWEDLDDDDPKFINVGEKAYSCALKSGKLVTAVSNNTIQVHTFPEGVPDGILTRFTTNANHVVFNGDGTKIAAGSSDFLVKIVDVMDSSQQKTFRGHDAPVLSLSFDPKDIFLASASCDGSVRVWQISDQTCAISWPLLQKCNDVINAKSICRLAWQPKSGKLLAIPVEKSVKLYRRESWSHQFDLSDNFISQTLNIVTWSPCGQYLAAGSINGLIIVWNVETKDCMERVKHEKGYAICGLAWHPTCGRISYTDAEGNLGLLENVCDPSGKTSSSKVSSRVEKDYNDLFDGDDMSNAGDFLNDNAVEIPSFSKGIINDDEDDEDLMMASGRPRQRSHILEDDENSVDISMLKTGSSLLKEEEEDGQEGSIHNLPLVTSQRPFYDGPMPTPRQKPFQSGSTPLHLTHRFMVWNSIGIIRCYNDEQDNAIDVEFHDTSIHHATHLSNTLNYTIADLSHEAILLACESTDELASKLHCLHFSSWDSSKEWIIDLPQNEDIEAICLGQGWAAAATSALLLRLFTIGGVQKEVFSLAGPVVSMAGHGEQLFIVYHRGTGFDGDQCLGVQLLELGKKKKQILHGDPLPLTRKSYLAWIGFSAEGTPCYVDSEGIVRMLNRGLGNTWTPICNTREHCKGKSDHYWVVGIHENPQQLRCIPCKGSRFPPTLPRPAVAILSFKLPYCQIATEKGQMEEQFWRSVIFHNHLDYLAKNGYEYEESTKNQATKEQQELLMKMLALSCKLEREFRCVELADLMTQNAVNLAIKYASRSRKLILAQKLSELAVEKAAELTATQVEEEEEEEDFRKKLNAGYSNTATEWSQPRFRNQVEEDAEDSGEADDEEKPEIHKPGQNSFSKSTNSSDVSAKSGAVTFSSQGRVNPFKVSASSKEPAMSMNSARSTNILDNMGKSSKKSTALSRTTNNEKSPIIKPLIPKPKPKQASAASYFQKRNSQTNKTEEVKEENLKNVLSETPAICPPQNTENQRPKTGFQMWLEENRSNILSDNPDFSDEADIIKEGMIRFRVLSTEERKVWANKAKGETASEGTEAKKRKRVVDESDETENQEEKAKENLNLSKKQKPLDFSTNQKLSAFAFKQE
Excerpt: Human And-1 exists as a homotrimer mediated by the SepB domain. To determine whether the interaction of CH3 with the WD40 domain can disrupt And-1 polymerization, resulting in exposure of CUL4B binding site on And-1 to CUL4B, both FLAG-And-1 and HA-And-1 were transfected into U2OS cells and the protein-protein interaction was examined in the presence of CH3.

[1] = system: recruitment of CtIP to DSB sites in IGROV1 cells; experiment: immunofluorescence assay of CtIP co-localization with γH2AX after micro-irradiation; format: cell-based, human; settings: 1 μM, 30 minutes post irradiation
Description: H2AX (H2A histone family member X) becomes phosphorylated on serine 139 (wherein the phosphorylated form is then called […]) as a reaction on DNA double-strand breaks (DSB). And-1 regulates DSB end resection by establishing a condition or acting as a platform for recruitment of the tumor suppressor protein CtIP—a CtBP (carboxy-terminal binding protein)-interacting protein, to the DSB sites. […] In brief, IGROV1 cells were cultured on coverslips coated with 0.01% of poly-L-lysine. After treatment, the cells were then washed once with PBS, then pre-extracted with 0.5% Triton X-100 extraction buffer (10 mM PIPES pH 7.0, 100 mM NaCl, 3 mM MgCl2 and 300 mM sucrose) on ice for 5 minutes. After washing with PBS, cells were fixed with 4% paraformaldehyde in PBS for 15 minutes. Cells were then washed and incubated for 10 minutes in blocking buffer (PBS containing 3% BSA and 0.02% Tween-20) and subsequently incubated for 1 hour with a primary antibody at room temperature. Cells were washed three times with PBS-T (PBS containing 0.02% Tween-20) and then incubated with a secondary antibody (e.g., rabbit Alexa Fluor-594 and mouse Alexa Fluor-488). After washing with PBS-T, cells were mounted with Fluoromount G containing DAPI (4′,6-diamidino-2-phenylindole—a fluorescent stain that binds strongly to adenine-thymine-rich regions in DNA). Slides were then imaged using a Nikon Eclipse 80i microscope. […]

IGROV1 CR xenograft = format: in vivo, mice
Description: To evaluate the potency of And-1 inhibitors in vivo, IGROV1 or MCF7 cells were subcutaneously implanted into nude mice to form ovarian or breast tumors, respectively. In brief, 5-6 week-old female BALB/c athymic nude mice (CByJ.Cg-Foxn1nu/J, weighting 20-25 grams) were inoculated subcutaneously by injecting the OC cells, cisplatin resistant OC cells or breast cancer cells suspended in 100 μl ice-cold Matrigel/PBS (1:1, V:V; 5×10^6/mouse) into the dorsal flank of each mouse. When the average tumor volume reached 100-150 mm^3, the mice were randomized into subsequent experiment groups. For tumors treated with CH3 only, CH3 was given at 0 mg/kg, 20 mg/kg and 40 mg/kg via intraperitoneal injection twice a week for three weeks. […] The relative tumor volumes were calculated using the formula: a×(b^2)/2, for which a and b represented the longest and shortest diameters, respectively. During the drug treatment, the tumor volume and body weight were measured. Tumor samples were collected 4 days after final administration of the drug.
To assess the efficacy of combination therapy with And-1 inhibitor and cisplatin in vivo, an IGROV1 CR xenograft was treated with vehicle, And-1 inhibitors, cisplatin or combination of cisplatin and And-1 inhibitor via intraperitoneal injection.

And-1 = target: T2, And-1 (Homo sapiens, UniProt O75717); experiment: immunoprecipitation of And-1 and anti-ubiquitin immunoblot in IGROV1 cells; format: cell-based; set-up: endogenous in cells; host or cells: IGROV1 CR
T2 sequence (O75717 1-1129): T1 sequence (O75717 1-1129)
Description: IGROV1 cells were treated with CH3 in the absence and presence of the 26S proteasome inhibitor MG132 (Benzyl N-[(2S)-4-methyl-1-[[(2S)-4-methyl-1-[[(2S)-4-methyl-1-oxopentan-2-yl]amino]-1-oxopentan-2-yl]amino]-1-oxopentan-2-yl]carbamate). […] Protein degradation through the proteasome requires conjugation of one or more ubiquitin molecules to the target. To address whether And-1 was modified by ubiquitin in IGROV1 cells treated with CH3, And-1 protein was immunoprecipitated and probed with anti-ubiquitin antibody.

## OB1OCc2cc(/C=C/c3ccc(Cl)c(Cl)c3)ccc21 [CH3]
And-1 polymerization
  interaction between HA-And-1 and FLAG-And-1: significantly decreased
[1]
  recruitment of CtIP to DSB sites induced by micro-irradiation: significantly decreased
IGROV1 CR xenograft; IGROV1 CR xenograft
  And-1 expression in tumor samples (IHC): suppressed expression of And-1
IGROV1 CR xenograft; IGROV1 CR xenograft, cisplatin 8 mg/kg, CH3 20 mg/kg, BZA 2 mg/kg intraperitoneally, three weeks
  tumor growth, combination with cisplatin vs cisplatin alone: excellent synergy in reducing tumor growth
IGROV1 CR xenograft; mouse, in vivo
  systemic toxicity of combination with cisplatin (body weight, H&E staining): no obvious systemic toxicity or side effect
And-1
  ubiquitinated And-1 bands: increased

Reference: patent US12258360B2, “Compositions and methods for treatment of anticancer-drug resistant cancers” (THE GEORGE WASHINGTON UNIVERSITY, priority 2020, dated 2025)
